The results in this text go back to patent publication US9169254B2, “Spiroimidazolone derivative” (Chugai Seiyaku Kabushiki Kaisha, priority 2009, dated 2015).

For this test, the target named is T1, human PTH1 receptor (Homo sapiens, UniProt Q03431).
T1 sequence (Q03431 27-593): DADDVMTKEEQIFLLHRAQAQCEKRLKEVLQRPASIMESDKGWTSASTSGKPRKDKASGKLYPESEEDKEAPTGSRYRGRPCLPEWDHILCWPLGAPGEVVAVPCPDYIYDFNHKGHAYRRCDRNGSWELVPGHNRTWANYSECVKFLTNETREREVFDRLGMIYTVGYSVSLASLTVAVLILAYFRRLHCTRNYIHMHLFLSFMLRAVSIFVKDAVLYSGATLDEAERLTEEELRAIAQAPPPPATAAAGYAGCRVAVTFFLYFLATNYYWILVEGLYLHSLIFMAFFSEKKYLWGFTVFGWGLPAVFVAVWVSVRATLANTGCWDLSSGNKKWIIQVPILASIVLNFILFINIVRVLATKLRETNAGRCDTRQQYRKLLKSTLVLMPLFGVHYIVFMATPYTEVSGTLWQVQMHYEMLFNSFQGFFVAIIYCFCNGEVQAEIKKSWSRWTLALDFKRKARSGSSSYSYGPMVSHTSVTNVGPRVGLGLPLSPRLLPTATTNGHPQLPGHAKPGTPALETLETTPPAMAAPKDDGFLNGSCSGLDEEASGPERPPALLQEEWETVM
As to the kind of experiment: In vitro cAMP signal activity in HKRK-B7 cells (LLC-PK1 cells overexpressing the human PTH1 receptor). In kind it is cell-based. To be noted: HKRK-B7 cells; compound at 1×10^−3 M; cAMP produced as percentage of that produced by hPTH(1-34) at 100 nM.

`Cc1cc(N(C)C(N)=O)cc(C)c1CCS(=O)(=O)N1CCC2(CC1)N=C(CCCCCCCCCCCCCC(N)=O)NC2=O` [Compound 1176, 14-(8-{2-[2,6-dimethyl-4-(1-methyl-ureido)-phenyl]-ethanesulfonyl}-4-oxo-1,3,8-triaza-spiro[4.5]dec-1-en-2-yl)-tetradecanoic acid amide]: the “cAMP production activity (%)” value was 82%. Take `Cc1c(/C=C/S(=O)(=O)N2CCC3(CC2)N=C(c2cccc(OC(F)(F)F)c2)NC3=O)cccc1OCCO` [Compound 256, 8-{(E)-2-[3-(2-Hydroxy-ethoxy)-2-methyl-phenyl]-ethenesulfonyl}-2-(3-trifluoromethoxy-phenyl)-1,3,8-triaza-spiro[4.5]dec-1-en-4-one]: the “cAMP production activity (%)” value amounted to 67%. As for `Cc1ccccc1C(=O)CS(=O)(=O)N1CCC2(CC1)N=C(C1CCCCC1)NC2=O` [Compound 1375, 2-Cyclohexyl-8-(2-oxo-2-o-tolyl-ethanesulfonyl)-1,3,8-triaza-spiro[4.5]dec-1-en-4-one], the figure is 23%; as for `Cc1cc(CN(C)C(N)=O)cc(C)c1/C=C/S(=O)(=O)N1CCC2(CC1)N=C(C1CCC(C)CC1)NC2=O` (stereo not shown) [Compound 1301, 1-(3,5-dimethyl-4-{(E)-2-[2-(4-methyl-cyclohexyl)-4-oxo-1,3,8-triaza-spiro[4.5]dec-1-ene-8-sulfonyl]-vinyl}-benzyl)-1-methyl-urea], 49%. The same measure for `Cc1cc2ccc1CCS(=O)(=O)N1CCC3(CC1)N=C(NC3=O)c1cc(cc(C(F)(F)F)c1)OCCCCCO[C@H]1CN(C[C@@H]1O)C2=O` [Compound 1425]: 32%; for `Cc1cc(C(=O)N(C)C)ccc1CCS(=O)(=O)N1CCC2(CC1)N=C(c1ccc(C(F)(F)F)cc1)NC2=O` [Compound 75, 3,N,N-trimethyl-4-{2-[4-oxo-2-(4-trifluoromethyl-phenyl)-1,3,8-triaza-spiro[4.5]dec-1-ene-8-sulfonyl]-ethyl}-benzamide]: 75%; for `Cc1cc(C(=O)N(C)C)ccc1CCS(=O)(=O)N1CCC2(CC1)N=C(c1cccc(-c3ccccc3)c1)NC2=O` [Compound 172, 4-[2-(2-biphenyl-3-yl-4-oxo-1,3,8-triaza-spiro[4.5]dec-1-ene-8-sulfonyl)-ethyl]-3,N,N-trimethyl-benzamide]: 102%.

As for `Cc1cc(N(CCOCCO)C(N)=O)cc(C)c1/C=C/S(=O)(=O)N1CCC2(CC1)N=C(C1CCC(CCC(F)(F)F)CC1)NC2=O` (stereo not shown) [Compound 724, 1-[3,5-Dimethyl-4-((E)-2-{4-oxo-2-[4-(3,3,3-trifluoro-propyl)-cyclohexyl]-1,3,8-triaza-spiro[4.5]dec-1-ene-8-sulfonyl}-vinyl)-phenyl]-1-[2-(2-hydroxy-ethoxy)-ethyl]-urea], the “cAMP production activity (%)” value amounted to 74%. The same measure for `Cc1cc(N(C)C(N)=O)cc(C)c1/C=C/[S@TB4](=O)(=O)N1CCC2(CC1)N=C(CCCCCCCCCCCCCC(=O)O)NC2=O` [Compound 1109, 14-(8-{(E)-2-[2,6-dimethyl-4-(1-methyl-ureido)-phenyl]-ethenesulfonyl}-4-oxo-1,3,8-triaza-spiro[4.5]dec-1-en-2-yl)-tetradecanoic acid]: 29%.

For the compound `O=C(Nc1ccncc1)c1cccc(CCS(=O)(=O)N2CCC3(CC2)N=C(C2CCCCC2)NC3=O)c1` [Compound 422, 3-[2-(2-cyclohexyl-4-oxo-1,3,8-triaza-spiro[4.5]dec-1-ene-8-sulfonyl)-ethyl]-N-pyridin-4-yl-benzamide], the “cAMP production activity (%)” value is 14%. For the compound `Cc1cc2ccc1CCS(=O)(=O)N1CCC3(CC1)N=C(NC3=O)c1cc(cc(C(F)(F)F)c1)OCC/C=C/CO[C@H]1CN(C[C@@H]1O)C2=O` [Compound 1424], the “cAMP production activity (%)” value is reported as 29%. As to `NCCn1ccc2c(/C=C/S(=O)(=O)N3CCC4(CC3)N=C(C3CCCCC3)NC4=O)cccc21` [Compound 686, 8-{(E)-2-[1-(2-Amino-ethyl)-1H-indol-4-yl]-ethenesulfonyl}-2-cyclohexyl-1,3,8-triaza-spiro[4.5]dec-1-en-4-one], the “cAMP production activity (%)” value was 22%. As for `Cc1cc(NC[C@H](O)CO)ccc1CCS(=O)(=O)N1CCC2(CC1)N=C(c1cccc(Cl)c1)NC2=O` [Compound 157, 2-(3-chloro-phenyl)-8-{2-[4-((S)-2,3-dihydroxy-propylamino)-2-methyl-phenyl]-ethanesulfonyl}-1,3,8-triaza-spiro[4.5]dec-1-en-4-one], the figure is 70%; as for `O=C1NC(C2CCC(CCC(F)(F)F)CC2)=NC12CCN(S(=O)(=O)/C=C/c1cccc3c1ccn3CCOC[C@H](O)[C@@H](O)CO)CC2` (stereo partly drawn) [Compound 706, 2-[4-(3,3,3-trifluoro-propyl)-cyclohexyl]-8-((E)-2-{1-[2-((2S,3S)-2,3,4-trihydroxy-butoxy)-ethyl]-1H-indol-4-yl}-ethenesulfonyl)-1,3,8-triaza-spiro[4.5]dec-1-en-4-one], 90%; as for `O=C(Cc1ccncc1)N1CCCC(C2=NC3(CCN(S(=O)(=O)CCc4cccc5ccccc45)CC3)C(=O)N2)C1` (stereo not shown) [Compound 438, 8-(2-naphthalen-1-yl-ethanesulfonyl)-2-[1-(2-pyridin-4-yl-acetyl)-piperidin-3-yl]-1,3,8-triaza-spiro[4.5]dec-1-en-4-one], 14%.

On to `O=C1NC(C2CCC(CCC(F)(F)F)CC2)=NC12CCN(S(=O)(=O)CCc1cccc3c1ccn3C[C@@H](O)CO)CC2` (stereo partly drawn) [Compound 867, 8-{2-[1-((R)-2,3-dihydroxy-propyl)-1H-indol-4-yl]-ethanesulfonyl}-2-[4-(3,3,3-trifluoro-propyl)-cyclohexyl]-1,3,8-triaza-spiro[4.5]dec-1-en-4-one], for which the “cAMP production activity (%)” value is reported as 71%. The same measure for `Cc1ccc(NCCO)cc1/C=C/S(=O)(=O)N1CCC2(CC1)N=C(C1CCCCC1)NC2=O` [Compound 199, 2-cyclohexyl-8-{(E)-2-[5-(2-hydroxy-ethylamino)-2-methyl-phenyl]-ethenesulfonyl}-1,3,8-triaza-spiro[4.5]dec-1-en-4-one]: 46%; for `Cc1cc(N2C(=O)NC(C)(C)C2=O)cc(C)c1/C=C/S(=O)(=O)N1CCC2(CC1)N=C(c1cccc(OC(F)(F)F)c1)NC2=O` [Compound 615, 3-(3,5-dimethyl-4-{(E)-2-[4-oxo-2-(3-trifluoromethoxy-phenyl)-1,3,8-triaza-spiro[4.5]dec-1-ene-8-sulfonyl]-vinyl}-phenyl)-5,5-dimethyl-imidazolidine-2,4-dione]: 46%; for `CC(C)n1ccc2c(CCS(=O)(=O)N3CCC4(CC3)N=C(C3CCCCC3)NC4=O)cccc21` [Compound 650, 2-cyclohexyl-8-[2-(1-isopropyl-1H-indol-4-yl)-ethanesulfonyl]-1,3,8-triaza-spiro[4.5]dec-1-en-4-one]: 55%.

For `CN(C)C(=O)NCCc1ccc(/C=C/S(=O)(=O)N2CCC3(CC2)N=C(C2CCCCC2)NC3=O)cc1` [Compound 490, 3-(2-{4-[(E)-2-(2-cyclohexyl-4-oxo-1,3,8-triaza-spiro[4.5]dec-1-ene-8-sulfonyl)-vinyl]-phenyl}-ethyl)-1,1-dimethyl-urea], the “cAMP production activity (%)” value came to 26%. For the compound `Cc1cc(C(=O)N2CCCC2)cc(C)c1/C=C/S(=O)(=O)N1CCC2(CC1)N=C(c1cccc(C(F)(F)F)c1)NC2=O` [Compound 388, 8-{(E)-2-[2,6-dimethyl-4-(pyrrolidine-1-carbonyl)-phenyl]-ethenesulfonyl}-2-(3-trifluoromethyl-phenyl)-1,3,8-triaza-spiro[4.5]dec-1-en-4-one], the “cAMP production activity (%)” value was 84%. As for `Cc1cc(C(=O)N2CCN(C(N)=O)CC2)cc(C)c1/C=C/S(=O)(=O)N1CCC2(CC1)N=C(c1cccc(OC(F)(F)F)c1)NC2=O` [Compound 396, 4-(3,5-dimethyl-4-{(E)-2-[4-oxo-2-(3-trifluoromethoxy-phenyl)-1,3,8-triaza-spiro[4.5]dec-1-ene-8-sulfonyl]-vinyl}-benzoyl)-piperazine-1-carboxylic acid amide], the figure is 85%; as for `CCCCCCCCCC1=NC2(CCN(S(=O)(=O)CCc3c(C)cc(C(=O)N4CCC4)cc3C)CC2)C(=O)N1` [Compound 982, 8-{2-[4-(azetidine-1-carbonyl)-2,6-dimethyl-phenyl]-ethanesulfonyl}-2-nonyl-1,3,8-triaza-spiro[4.5]dec-1-en-4-one], 96%.

As for `Cc1cc(N(C)C(N)=O)cc(C)c1/C=C\S(=O)(=O)N1CCC2(CC1)N=C(CCCCCCCCCF)NC2=O` [Compound 1326, 1-(4-{(Z)-2-[2-(9-fluoro-nonyl)-4-oxo-1,3,8-triaza-spiro[4.5]dec-1-ene-8-sulfonyl]-vinyl}-3,5-dimethyl-phenyl)-1-methyl-urea], the “cAMP production activity (%)” value stood at 84%. Consider `Cc1cc2ccc1CCS(=O)(=O)N1CCC3(CC1)N=C(NC3=O)c1cc(cc(C(F)(F)F)c1)OCC/C=C/COCCN(CCO)C2=O` [Compound 1428], for which the “cAMP production activity (%)” value stood at 67%.
